Converted amounts (≈) assume the structure as drawn.
Experiments:
[1] = tested on: BJ-DRD cells; assay: Alamar Blue viability assay; format: cell-based; conditions: Homo sapiens; BJ-DRD (+RAS)
Text: The engineered tumor cells make use of dominantly acting viral oncoproteins (LT and ST). These viral proteins are involved in cell transformation in specific forms of cancer, namely simian virus 40-induced malignant mesothelioma^134 and other viral oncogenes (E6 and E7) are involved in human papillomavirus-induced cervical carcinoma^135, and have been used to disrupt p53 and pRB function to transform cells in vitro and in vivo^136-138. The selectivity of erastin and the other compounds were further established in a cell line expressing dominant negative inhibitors of p53 and pRB not derived from viral elements. This cell line expresses (i) a truncated form of p53 (p53DD) that disrupts the tetramerization of endogenous p53, (ii) a CDK4^R24C mutant resistant to inhibition by p16INK4A and p15INK4B (the major negative regulators of CDK4) and (iii) cyclin D1. The effects of these RAS^V12-selective compounds at a range of concentrations were tested in these cells, BJ-TERT/p53^DD/CDK4^R24C/D1/ST/RAS^V12 (named BJ-DRD) cells. […] Thus, these compounds (including erastin) are effective in tumor cells transformed without viral proteins (other than ST).
Alamar Blue metabolism: 10% Alamar Blue was added to assay plates, which were then incubated for an additional 16 hours. Red fluorescence, resulting from reduction of Alamar Blue, was detected on a Victor3 platereader (ex: 530, em: 590).
Table 2. […]

[2] = biological target: T1, murine VDAC3 (Mus musculus, UniProt Q60931); assay: NADH oxidation assay in mitochondria from yeast expressing VDAC3; format: biochemical; conditions: mitochondria from yeast expressing VDAC3 in place of yeast VDAC
T1 construct: expressed in transfected cells; host or cells: yeast (S. cerevisiae) with murine VDAC3 in place of yeast VDAC; isolated mitochondria
T1 sequence (Q60931 1-283): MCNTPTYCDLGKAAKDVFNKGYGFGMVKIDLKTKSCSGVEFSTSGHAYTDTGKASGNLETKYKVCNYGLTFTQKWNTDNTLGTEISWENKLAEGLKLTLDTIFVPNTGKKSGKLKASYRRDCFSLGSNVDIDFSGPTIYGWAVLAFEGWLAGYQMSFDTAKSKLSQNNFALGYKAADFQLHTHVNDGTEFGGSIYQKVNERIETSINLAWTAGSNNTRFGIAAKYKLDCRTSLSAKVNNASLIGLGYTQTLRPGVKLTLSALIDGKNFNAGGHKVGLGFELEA
Experimental: In certain embodiments, mitochondria can be purified from yeast that had been engineered to express murine or human VDAC3 in place of yeast VDAC.
Mitochondria were isolated from yeast expressing murine VDAC3 in place of yeast VDAC. The rate of NADH oxidation by an inner membrane NADH dehydrogenase was determined by measuring the change in NADH absorbance over time. Mitochondria with a disrupted outer membrane show an increased rate of NADH oxidation (red, shocked) compared to untreated mitochondria (green).
NADH oxidation in the mitochondria was measured by resuspending mitochondria isolated from yeast in R-buffer (0.65 M sucrose, 10 mM HEPES (pH 7.5), 10 mM KH2PO4, 5 mM KCl, 5 mM, MgCl2) to a final concentration of 100 μg/ml. Mitochondrial concentration was measured by dissolving mitochondria in 0.6% SDS and reading absorbance at 280 nm. The mitochondrial suspension was then incubated with 25 μM NADH, and the absorbance at 340 nm monitored over a 15 minute period. The assay was repeated in the presence of erastin. To assess mitochondrial intactness, a parallel assay was run in which mitochondria were hypotonically shocked prior to addition of NADH. The mitochondrial pellet was resuspended in dH2O and incubated on ice for 3 minutes to disrupt the outer mitochondrial membrane. 2× R-buffer was then added to restore normal osmotic conditions.

[3] = tested on: BJ-TERT/LT/ST/RAS^V12 cells; assay: Annexin V staining; format: cell-based, human; conditions: erastin 9 μM
Experimental: The percentage of cells in the indicated Ml region were 6%, 6%, and 38% in untreated, erastin-treated (9 μM), and camptothecin-treated (1 μM), respectively.

[4] = tested on: vinblastine resistant CCRF-CEM derivative cells; assay: Cell death in taxol/vinblastine resistance panel; format: cell-based; conditions: Homo sapiens
Experimental: In certain embodiments, the sensitivity to erastin, can be tested in cell lines that are resistant to taxol and vinblastine. The sensitivity of CCRF-CEM parental, and taxol and vinblastine resistant derivative cells to erastin was tested. […] Erastin analogues can be tested to ensure their effectiveness in inducing cell death in tumor cell line which are resistant to taxol or vinblastin, or other ant-tumor agents.

[5] = tested on: tumor cell lines; assay: Dose-response of panel of tumor cell lines to erastin; format: cell-based
Experimental: In certain aspects, the invention provides that erastin is lethal to tumor cells with activating mutations in proteins downstream of RAS proteins. Dose-response of 30 tumor cell lines to erastin was measured, and at least 50% inhibition of cell viability in 19 of the 30 tumor cell lines was formed. Numerous sarcoma-derived tumor cell lines were sensitive to erastin, consistent with the fact that erastin was discovered in an engineered tumor cell line created from human fibroblasts. Non-limiting examples include, HT1080 fibrosarcoma cells. HT1080 fibrosarcoma cells, which have a known activating mutation in NRAS, (Plattner, R. et al. Differential contribution of the ERK and JNK mitogen-activated protein kinase cascades to Ras transformation of HT1080 fibrosarcoma and DLD-1 colon carcinoma cells. Oncogene. 18: 1807-17 (1999)), were quite sensitive to erastin. In order to determine whether RAS-activated signaling was modulated in cell lines that respond to erastin, the phosphorylation status of ERK1/2 in 12 sarcoma cell lines with a range of sensitivities to erastin was evaluated. In certain aspects, the invention provides a non-zero correlation, such as for example, a correlation coefficient of 0.41, between ERK1/2 phosphorylation status and erastin sensitivity in these cell lines. […]

Q: How did the IC50 [1] turn out when `CCOc1ccccc1-n1c(C(C)N2CCN(C(=O)COc3ccc(Cl)cc3)CC2)nc2ccccc2c1=O` (stereo not shown) [erastin, 2-(1-{4-[2-(4-Chloro-phenoxy)-acetyl]-piperazin-1-yl}-ethyl)-3-(2-ethoxy-phenyl)-3H-quinazolin-4-one] was run?
A: The IC50 was 2.5 µg/mL (≈ 4.57 µM).

Q: What about the “Rate of NADH oxidation / permeability of outer mitochondrial membrane to NADH” value [2] of the same compound?
A: Its value is “increases the permeability”.

Q: What about the “Rate of NADH oxidation / permeability of outer mitochondrial membrane to NADH” value ([2]; listed as Erastin) of the same compound?
A: The value was “increased the rate of NADH oxidation”.

Q: What about the “percentage of cells in M1 region (Annexin V staining)” value [3] of the same compound?
A: The value was 6%.

Q: What about the IC50 [4] of the same compound?
A: Its IC50 is 8 µM.

Q: And the “number of cell lines with at least 50% inhibition of viability” value ([5]; of 29 tumor cell lines)?
A: Its value is 18.

Q: What about the “number of cell lines with at least 50% inhibition of cell viability” value ([5]; of 30 tumor cell lines) of the same compound?
A: The value was 19.
